These are literature values, as cited in patent publication US20250009831A1, “COMBINATION OF SCUTELLARIA EXTRACTS WITH CITRUS BERGAMIA OR CYNARA CARDUNCULUS EXTRACTS AND FORMULATIONS CONTAINING THEM” (AKHYNEX S.R.L., priority 2021, published 2025).

The subject of this data set is rats treated with orotic acid to induce fatty liver disease.

As for `O=C(O)[C@H]1O[C@@H](Oc2cc3oc(-c4ccccc4)cc(=O)c3c(O)c2O)[C@H](O)[C@@H](O)[C@@H]1O` [baicalin], the FFA-induced lipotoxicity entry (rat, in vivo) is on record as “had a preventive effect on FFA-induced lipotoxicity”. Besides, where the note is “rats treated with orotic acid”, the “accumulation of fats in the liver” value is “inhibited the accumulation of fats in the liver” and the “hypertrophy of the hepatocytes” value was “attenuated hypertrophy of the hepatocytes”.
